# Legend:
# Test in all cases: relative viability (nuclei count vs DMSO), 5 days (fraction); higher = more cells survive
# Vorinostat + Pemetrexed = compound: O=C(CCCCCCC(=O)Nc1ccccc1)NO [Vorinostat] + Nc1nc2[nH]cc(CCc3ccc(C(=O)N[C@@H](CCC(=O)O)C(=O)O)cc3)c2c(=O)[nH]1 [Pemetrexed] (partner 0.2 µM)
# Method in brief: (§1)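 A single step with final 0.05% Triton X-100, 1% formaldehyde and 1 ug/ml Hoechst fixed the cells and stained nuclei 5 days after treatment. Lung cancer cell lines in 1536-well plates had been treated by pin tool the day after seeding with one drug alone or a fixed anchor-drug dose plus five library-drug doses (not always all listed) in √10 steps, and nuclei were counted on 4× images. Relative viability is the ratio of nuclei in treated wells to nuclei in vehicle wells, taken as the median of duplicate plates.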
# Vorinostat + AZD7762 = compound: O=C(CCCCCCC(=O)Nc1ccccc1)NO [Vorinostat] + NC(=O)Nc1cc(-c2cccc(F)c2)sc1C(=O)N[C@H]1CCCNC1 [AZD7762] (partner 0.2 µM)
# Method in brief: as §1
# Vorinostat + Trametinib = compound: O=C(CCCCCCC(=O)Nc1ccccc1)NO [Vorinostat] + CC(=O)Nc1cccc(-n2c(=O)n(C3CC3)c(=O)c3c(Nc4ccc(I)cc4F)n(C)c(=O)c(C)c32)c1 [Trametinib] (partner 0.02 µM)
# Method in brief: as §1
# Vorinostat + Decitabine = compound: O=C(CCCCCCC(=O)Nc1ccccc1)NO [Vorinostat] + Nc1ncn([C@H]2C[C@H](O)[C@@H](CO)O2)c(=O)n1 [Decitabine] (partner 2 µM)
# Method in brief: as §1
# Vorinostat + Pictilisib = compound: O=C(CCCCCCC(=O)Nc1ccccc1)NO [Vorinostat] + CS(=O)(=O)N1CCN(Cc2cc3nc(-c4cccc5[nH]ncc45)nc(N4CCOCC4)c3s2)CC1 [Pictilisib] (partner 1 µM)
# Method in brief: as §1
cell line,measurement,setting,value
NCI-H647,relative viability,Vorinostat + Pemetrexed; first compound 0.253 µM,0.226
same,relative viability,Vorinostat + Pemetrexed; first compound 0.8 µM,0.138
same,relative viability,Vorinostat + Pemetrexed; first compound 2.53 µM,0.0722
same,relative viability,Vorinostat + Pemetrexed; first compound 8 µM,0.0562
same,relative viability,Vorinostat + AZD7762; first compound 0.253 µM,0.406
same,relative viability,Vorinostat + AZD7762; first compound 0.8 µM,0.333
same,relative viability,Vorinostat + AZD7762; first compound 2.53 µM,0.0641
same,relative viability,Vorinostat + AZD7762; first compound 8 µM,0.0356
same,relative viability,Vorinostat + Trametinib; first compound 0.253 µM,0.642
same,relative viability,Vorinostat + Trametinib; first compound 0.8 µM,0.497
same,relative viability,Vorinostat + Trametinib; first compound 2.53 µM,0.164
same,relative viability,Vorinostat + Trametinib; first compound 8 µM,0.0479
same,relative viability,Vorinostat + Decitabine; first compound 0.253 µM,0.356
same,relative viability,Vorinostat + Decitabine; first compound 0.8 µM,0.286
same,relative viability,Vorinostat + Decitabine; first compound 2.53 µM,0.137
same,relative viability,Vorinostat + Decitabine; first compound 8 µM,0.0323
same,relative viability,Vorinostat + Pictilisib; first compound 0.253 µM,0.454
same,relative viability,Vorinostat + Pictilisib; first compound 0.8 µM,0.526
same,relative viability,Vorinostat + Pictilisib; first compound 2.53 µM,0.153
same,relative viability,Vorinostat + Pictilisib; first compound 8 µM,0.0703
LK-2,relative viability,Vorinostat + Pemetrexed; first compound 0.253 µM,0.278
same,relative viability,Vorinostat + Pemetrexed; first compound 0.8 µM,0.262
same,relative viability,Vorinostat + Pemetrexed; first compound 2.53 µM,0.138
same,relative viability,Vorinostat + Pemetrexed; first compound 8 µM,0.036
same,relative viability,Vorinostat + AZD7762; first compound 0.253 µM,0.334
same,relative viability,Vorinostat + AZD7762; first compound 0.8 µM,0.373
same,relative viability,Vorinostat + AZD7762; first compound 2.53 µM,0.126
same,relative viability,Vorinostat + AZD7762; first compound 8 µM,0.0415
same,relative viability,Vorinostat + Trametinib; first compound 0.253 µM,0.893
same,relative viability,Vorinostat + Trametinib; first compound 0.8 µM,0.496
same,relative viability,Vorinostat + Trametinib; first compound 2.53 µM,0.167
same,relative viability,Vorinostat + Trametinib; first compound 8 µM,0.0907
same,relative viability,Vorinostat + Decitabine; first compound 0.253 µM,0.267
same,relative viability,Vorinostat + Decitabine; first compound 0.8 µM,0.201
same,relative viability,Vorinostat + Decitabine; first compound 2.53 µM,0.089
same,relative viability,Vorinostat + Decitabine; first compound 8 µM,0.064
same,relative viability,Vorinostat + Pictilisib; first compound 0.253 µM,0.48
same,relative viability,Vorinostat + Pictilisib; first compound 0.8 µM,0.379
same,relative viability,Vorinostat + Pictilisib; first compound 2.53 µM,0.211
same,relative viability,Vorinostat + Pictilisib; first compound 8 µM,0.132
H3255,relative viability,Vorinostat + Pemetrexed; first compound 0.253 µM,0.656
same,relative viability,Vorinostat + Pemetrexed; first compound 0.8 µM,0.573
same,relative viability,Vorinostat + Pemetrexed; first compound 2.53 µM,0.56
same,relative viability,Vorinostat + Pemetrexed; first compound 8 µM,0.289
same,relative viability,Vorinostat + AZD7762; first compound 0.253 µM,0.989
same,relative viability,Vorinostat + AZD7762; first compound 0.8 µM,0.923
same,relative viability,Vorinostat + AZD7762; first compound 2.53 µM,0.507
same,relative viability,Vorinostat + AZD7762; first compound 8 µM,0.279
same,relative viability,Vorinostat + Trametinib; first compound 0.253 µM,0.819
same,relative viability,Vorinostat + Trametinib; first compound 0.8 µM,0.709
same,relative viability,Vorinostat + Trametinib; first compound 2.53 µM,0.576
same,relative viability,Vorinostat + Trametinib; first compound 8 µM,0.227
same,relative viability,Vorinostat + Decitabine; first compound 0.253 µM,0.839
same,relative viability,Vorinostat + Decitabine; first compound 0.8 µM,0.607
same,relative viability,Vorinostat + Decitabine; first compound 2.53 µM,0.427
same,relative viability,Vorinostat + Decitabine; first compound 8 µM,0.173
same,relative viability,Vorinostat + Pictilisib; first compound 0.253 µM,0.599
same,relative viability,Vorinostat + Pictilisib; first compound 0.8 µM,0.574
same,relative viability,Vorinostat + Pictilisib; first compound 2.53 µM,0.318
same,relative viability,Vorinostat + Pictilisib; first compound 8 µM,0.183
NCI-H1915,relative viability,Vorinostat + Pemetrexed; first compound 0.253 µM,0.531
same,relative viability,Vorinostat + Pemetrexed; first compound 0.8 µM,0.494
same,relative viability,Vorinostat + Pemetrexed; first compound 2.53 µM,0.371
same,relative viability,Vorinostat + Pemetrexed; first compound 8 µM,0.102
same,relative viability,Vorinostat + AZD7762; first compound 0.253 µM,0.692
same,relative viability,Vorinostat + AZD7762; first compound 0.8 µM,0.673
same,relative viability,Vorinostat + AZD7762; first compound 2.53 µM,0.377
same,relative viability,Vorinostat + AZD7762; first compound 8 µM,0.102
same,relative viability,Vorinostat + Trametinib; first compound 0.253 µM,0.36
same,relative viability,Vorinostat + Trametinib; first compound 0.8 µM,0.291
same,relative viability,Vorinostat + Trametinib; first compound 2.53 µM,0.227
same,relative viability,Vorinostat + Trametinib; first compound 8 µM,0.101
same,relative viability,Vorinostat + Decitabine; first compound 0.253 µM,0.278
same,relative viability,Vorinostat + Decitabine; first compound 0.8 µM,0.254
same,relative viability,Vorinostat + Decitabine; first compound 2.53 µM,0.174
same,relative viability,Vorinostat + Decitabine; first compound 8 µM,0.106
same,relative viability,Vorinostat + Pictilisib; first compound 0.253 µM,1.17
same,relative viability,Vorinostat + Pictilisib; first compound 0.8 µM,0.751
same,relative viability,Vorinostat + Pictilisib; first compound 2.53 µM,0.426
same,relative viability,Vorinostat + Pictilisib; first compound 8 µM,0.0969
NCI-H3122,relative viability,Vorinostat + Pemetrexed; first compound 0.253 µM,0.199
same,relative viability,Vorinostat + Pemetrexed; first compound 0.8 µM,0.199
same,relative viability,Vorinostat + Pemetrexed; first compound 2.53 µM,0.174
same,relative viability,Vorinostat + Pemetrexed; first compound 8 µM,0.0738
same,relative viability,Vorinostat + AZD7762; first compound 0.253 µM,1.17
same,relative viability,Vorinostat + AZD7762; first compound 0.8 µM,1.06
same,relative viability,Vorinostat + AZD7762; first compound 2.53 µM,0.246
same,relative viability,Vorinostat + AZD7762; first compound 8 µM,0.0864
same,relative viability,Vorinostat + Trametinib; first compound 0.253 µM,0.168
same,relative viability,Vorinostat + Trametinib; first compound 0.8 µM,0.265
same,relative viability,Vorinostat + Trametinib; first compound 2.53 µM,0.298
same,relative viability,Vorinostat + Trametinib; first compound 8 µM,0.118
same,relative viability,Vorinostat + Decitabine; first compound 0.253 µM,0.45
same,relative viability,Vorinostat + Decitabine; first compound 0.8 µM,0.582
same,relative viability,Vorinostat + Decitabine; first compound 2.53 µM,0.269
same,relative viability,Vorinostat + Decitabine; first compound 8 µM,0.117
same,relative viability,Vorinostat + Pictilisib; first compound 0.253 µM,0.667
same,relative viability,Vorinostat + Pictilisib; first compound 0.8 µM,0.758
same,relative viability,Vorinostat + Pictilisib; first compound 2.53 µM,0.284
same,relative viability,Vorinostat + Pictilisib; first compound 8 µM,0.177

# — the supplement of paper PMC10307832
